{
  "source": "patent US20260224632A1",
  "about": "“USE OF A COMPOSITION COMPRISING A NEO-SYNTHESIZED EXTRACELLLAR MATRIX FOR THE TREATMENT OF CANCER, IN PARTICULAR FOR THE INHIBITION OF CANCER VIABILITY, MIGRATION, AND PROLIFERATION” (NOVADIP BIOSCIENCES, priority 2023, published 2026)",
  "key": {"[1]": {"system": "human bone marrow mesenchymal stem cells (hBM-MSCs)", "experiment": "CCK-8 viability assay", "assay_type": "cell-based", "settings": "hBM-MSCs (non-tumor); 72 h; NVDM2 7 and 15 mg per well; doxorubicin 0.1 uM", "procedure": "(§1) Doxorubicin (0.1 uM) was used as a positive control treatment and gelatin beads alone were used for comparison with NVDM2 treatment. All treatments were carried out in 96-well plates in transwells. The compositions of the invention (NVDM2) were administered in two different doses: 7 mg and 15 mg per well. The viability was measured using CCK-8 viability bioassay at 72 hours after administration. […] Data represent the mean±s.d. values of % cell viability upon treatment normalized to the respective untreated sample. Blue line represents 100% of viability. Statistical significances between treated vs untreated samples at the respective time point were tested by ANOVA-I. *, p≤0.05; **; p≤0.01, ***; p≤0.001; ns, not significant. Blue dots: values of individual batches (biological replicates). Each chart represents the average value of the data from all batches tested. DS: lyophilized non irradiated powder of NVDM2; DP: lyophilized powder of NVDM2 after irradiation.\n(§2) For this assay the Cell Counting Kit-8 Kit was used (Sigma-Aldrich). […] This coloured product (formazan) is measured using a spectrophotometer. […]\n(§3) After O/N incubation, the medium was removed, and the cells were incubated for 72 h in the presence of the different doses of the test item. […] The plate was incubated at 37° C. for 2 hour and then absorbance at 450 nm was measured."}, "[2]": {"system": "adult human dermal fibroblasts (HDFa)", "experiment": "CCK-8 viability assay", "assay_type": "cell-based", "settings": "HDFa (non-tumor); 72 h; NVDM2 7 and 15 mg per well; doxorubicin 0.1 uM", "procedure": "as §1, §2, §3"}},
  "data": [
    {"smiles": "COc1cccc2c1C(=O)c1c(O)c3c(c(O)c1C2=O)C[C@@](O)(C(=O)CO)C[C@@H]3O[C@H]1C[C@H](N)[C@H](O)[C@H](C)O1", "note": "[doxorubicin, Doxorubicin]", "values": [
      {"measurement": "% cell viability normalized to untreated (CCK-8)", "setting": "[1]", "result": "significant inhibitory impact"},
      {"measurement": "% cell viability normalized to untreated (CCK-8)", "setting": "[2]", "result": "significant inhibitory impact"}
    ]}
  ]
}
